What was measured:
[1] = test system: Male WistarF/Han (WF) rats; test: Social interaction (SI) test with Y1R antagonist BIBP3226, P32/98 and NPY (Example 4); assay type: in vivo, rat; settings: i.c.v. 50 nmol
Description: (§1) Animals. Male WistarF/Han (WF) rats (Central Animal Laboratory, Hannover Medical School, Hannover, Germany, weighing 330±31 g±SD, were housed in a sound-proof, temperature controlled (24.0±0.5° C.) room under specific pathogen free conditions with a 12/12 h dark/light cycle (lights on at 07.00 with illumination level of 80 Lux). Food (Altromin lab chow pellets) and tap water were available ad libitum. Under ketamine/xylasine (100/5 mg/kg, i.p.) anesthesia, the rats were fixed in a Kopf stereotaxic frame and implanted with cannulae (Plastic One, Inc., Roanoke, Va., USA) above the lateral ventricle. All research and animal care procedures were approved by the Lower Saxony district government (Hannover, Germany) and followed principles described in the European Community's Council Directive of 24 Nov. 1986 (86/609/EEC).
(§2) Surgery and i.c.v. application. […]
(§3) Animals were randomly divided into eight experimental groups (n=6-8/group), which completed one SI test of anxiety: (1) aCSF+aCSF+aCSF; (2) BIBP+aCSF+aCSF; (3) aCSF+P32/98+aCSF; (4) BIBP+P32/98+aCSF; (5) aCSF+aCSF+NPY; (6) BIBP+aCSF+NPY; (7) aCSF+[…]+NPY; (8) BIBP+P32/98+NPY. […] The time spent in active social interaction (SI-time), 1 h, and 12 h food-intake were measured. […]
Social interaction (SI) test. […] Behavior was monitored using a video camera placed above the field inside the testing/isolation box. The SI behavior of both rats was recorded on-line from a monitor placed outside on top of the box. The following parameters were scored by an observer (HPN) unaware of the substrain of rats: duration of time spent in sniffing, following, crawling under and over other rats, but not passive body contact (resting, sleeping). […]
(§4) Statistical analysis. Data obtained from the measures SI time and 1 h food intake were analyzed by one-way (factor: “treatment”) ANOVA. […]

[2] = test system: Male WistarF/Han (WF) rats; test: 1 h food-intake with Y1R antagonist BIBP3226, P32/98 and NPY (Example 4); assay type: in vivo, rat; settings: i.c.v. 50 nmol
Description: as §1, §2, §3, §4

CC[C@H](C)[C@H](N)C(=O)N1CCSC1 [P32/98]
SI-time, P32/98 alone [1]: acts not anxiolytic-like | 1 h food-intake, P32/98 alone [2]: non-significant slight increase of feeding
